According to patent US9198429B2, “Heterocyclic alkanol-derivatives” (BAYER INTELLECTUAL PROPERTY GMBH, priority 2011, dated 2015):
Several values for one entry are separate records, joined by “and”; a condition that tells them apart may be missing. Identical values can stand only once.

Key:
Sphaerotheca fuliginea [1] = assay: Example E: Sphaerotheca test (cucumber)/protective, comparison with EP-A 395 175; assay type: in vivo; conditions: application rate 100 ppm, cucumber plants, protective, evaluation 7 days after inoculation
Pyricularia oryzae = assay type: in vivo; conditions: application rate 1000 ppm, rice plants, protective, evaluation 6 days after inoculation
Sphaerotheca fuliginea [2] = assay: Example A: Sphaerotheca test (cucumber)/protective; assay type: in vivo; conditions: 500 ppm, cucumber plants, protective, evaluation 7 days after inoculation
[3] = for log P [a]: pH 2.3; for log P [b]: pH 2.7; for log P [c]: pH 7.8
Pyrenophora teres [4] = assay: Example F: Pyrenophora teres test (barley)/protective, comparison with EP-A 409 418; assay type: in vivo; conditions: application rate 500 ppm, protective, evaluation 7-9 days after inoculation
Pyrenophora teres [5] = assay: Example C: Pyrenophora teres test (barley)/protective; assay type: in vivo; conditions: 500 ppm, protective, evaluation 7-9 days after inoculation
Uromyces appendiculatus = assay: Example H: Uromyces test (beans)/protective; assay type: in vivo; conditions: application rate 10 ppm, protective, evaluation 10 days after inoculation
Description: To test for protective activity, young plants are sprayed with the preparation of active compound at the stated application rate. After the spray coating has dried on, the plants are inoculated with an aqueous spore suspension of bean rust (Uromyces appendiculatus) and then remain in an incubation cabin at 100% relative atmospheric humidity and 20° C. for one day. The plants are then placed in a greenhouse at 90% relative atmospheric humidity and a temperature of about 21° C. […]

Alternaria solani = assay: Example B: Alternaria test (tomato)/protective; assay type: in vivo; conditions: 500 ppm, tomato plants, protective, evaluation 7 days after inoculation
[6] = logP by HPLC on reversed-phase columns (EEC directive 79/831 Annex V.A8)

CC(C)(C)C(O)(CCc1ccc(Cl)cc1)Cc1cncs1 (stereo not drawn)
Efficacy in % (Sphaerotheca fuliginea [1]): 8%

OC(c1cnc(Cl)s1)(c1ccc(F)cc1F)C1(Oc2ccc(F)cc2F)CC1 (stereo not drawn) [Compound 12, (2-chloro-1,3-thiazol-5-yl)[1-(2,4-difluorophenoxy)cyclopropyl](2,4-difluorophenyl)methanol]
chromatographic logP (physchem; pH 2.7): 4.29
chromatographic logP (physchem; pH 7.8): 4.23

CC(C)(C)C(O)(CCc1ccc(Cl)cc1)c1cncs1 (stereo not drawn) [drawing 38]
Efficacy in % (Pyricularia oryzae): 22%

CC(c1ccc(Cl)cc1Cl)C(O)(c1cncs1)C(C)(C)C (stereo not drawn) [Compound 23]
Efficacy (%) (Sphaerotheca fuliginea [2]): 70%
log P [a] [3]: 4.4[a]

CC(C)(C)C(O)(COc1ccc(Cl)cc1)Cc1cncs1 (stereo not drawn)
Efficacy in % (Sphaerotheca fuliginea [1]): 5%

CC(C)(C)C(O)(CCc1ccc(Cl)cc1)c1cncs1 (stereo not drawn) [drawing 36, reference compound]
Efficacy in % (Pyrenophora teres [4]): 0%

CC(C)(C)C(O)(c1cncs1)C(C)(C)Oc1ccc(Cl)cc1 (stereo not drawn) [Compound 16, 2-(4-chlorophenoxy)-2,4,4-trimethyl-3-(1,3-thiazol-5-yl)pentan-3-ol]
chromatographic logP (physchem; pH 2.7): 4.13
Efficacy (%) (Sphaerotheca fuliginea [2]): 100%

CC(C)(C)C(O)(c1cncs1)C(C)(C)Oc1ccc(I)cc1F (stereo not drawn) [Compound 14]
log P [b] [3]: 4.7^[b]

COc1ccc(OC(C)(C)C(O)(c2cncs2)C(C)(C)C)cc1 (stereo not drawn) [Compound 13]
Efficacy (%) (Pyrenophora teres [5]): 75%
log P [b] [3]: 3.49^[b]

CC(C)(C)C(O)(CCc1ccc(Cl)cc1)c1cncs1 (stereo not drawn) [drawing 41, reference compound]
Efficacy in % (Uromyces appendiculatus): 0%

OC(c1ccc(Br)cc1)(c1cnco1)C1(Oc2ccccc2)CC1 (stereo not drawn) [Compound 5]
log P [b] [3]: 3.51
log P [c] [3]: 3.48

CC(C)(Cc1ccc(I)cc1)C(C)(O)c1cncs1 (stereo not drawn) [Compound 20]
Efficacy (%) (Alternaria solani): 90%
log P [b] [3]: 3.45^[b]

CC(C)(Cc1ccc(F)cc1Cl)C(C)(O)c1cncs1 (stereo not drawn) [Compound 19]
log P [b] [3]: 3.14^[b]

CC(C)[Si](c1ncc(C(O)(c2ccc(Cl)cc2)C2(Oc3ccccc3)CC2)o1)(C(C)C)C(C)C (stereo not drawn) [Compound 9, (4-chlorophenyl)(1-phenoxycyclopropyl)[2-(triisopropylsilyl)-1,3-oxazol-5-yl]methanol]
chromatographic logP ([6]; pH 2.7): 7.36
chromatographic logP ([6]; pH 7.8): 7.36

CC(c1ccc(F)cc1Cl)C(O)(c1cnc(Cl)s1)C(C)(CF)CF (stereo not drawn) [Compound 26]
log P [a] [3]: 4.51^[a]

CC(C)(Cc1ccc(Cl)cc1)C(C)(O)c1cncs1 (stereo not drawn) [Compound 22, 4-(4-chlorophenyl)-3,3-dimethyl-2-(1,3-thiazol-5-yl)butan-2-ol]
Efficacy (%) (Pyrenophora teres [5]): 70% and 90%
Efficacy in % (Pyrenophora teres [4]): 70%
chromatographic logP (physchem; pH 2.7): 3.11
Efficacy (%) (Sphaerotheca fuliginea [2]): 75%
Efficacy in % (Pyricularia oryzae): 78%
Efficacy in % (Uromyces appendiculatus): 80%

CC(C)(Cc1ccc(Br)cc1)C(C)(O)c1cncs1 (stereo not drawn) [Compound 18]
log P [b] [3]: 3.22^[b]

CC(C)(C)C(O)(c1cncs1)C(C)(C)Oc1ccc(Br)cc1 (stereo not drawn) [Compound 15]
Efficacy (%) (Sphaerotheca fuliginea [2]): 99%
log P [b] [3]: 4.27^[b]

OC(c1ccc(Cl)cc1)(c1cnco1)C1(Oc2ccccc2)CC1 (stereo not drawn) [Compound 8, (4-chlorophenyl)(1,3-oxazol-5-yl)(1-phenoxycyclopropyl)methanol]
chromatographic logP (physchem; pH 2.7): 3.37
chromatographic logP (physchem; pH 7.8): 3.43

OC(c1ccc(Br)cc1)(c1cnco1)C1(Oc2ccc(F)cc2F)CC1 (stereo not drawn) [Compound 6]
log P [b] [3]: 3.59
log P [c] [3]: 3.56

OC(c1ccc(Br)cc1)(c1cnco1)C1(Oc2ccc(F)cc2)CC1 (stereo not drawn) [Compound 7]
log P [b] [3]: 3.54
log P [c] [3]: 3.52

OC(c1cnco1)(c1ccc(F)cc1F)C1(Oc2ccc(F)cc2F)CC1 (stereo not drawn) [Compound 4]
log P [b] [3]: 3.07
log P [c] [3]: 3.1

CC(C)(Cc1ccc(OC(F)(F)F)cc1)C(C)(O)c1cncs1 (stereo not drawn) [Compound 17]
Efficacy (%) (Alternaria solani): 90%

CC(C)(Cc1ccc(C(F)(F)F)cc1)C(C)(O)c1cncs1 (stereo not drawn) [Compound 21]
Efficacy (%) (Pyrenophora teres [5]): 70%
log P [b] [3]: 3.34^[b]

CC(c1ccc(F)cc1Cl)C(O)(c1cncs1)C(C)(CF)CF (stereo not drawn) [Compound 25]
Efficacy (%) (Sphaerotheca fuliginea [2]): 93%
log P [b] [3]: 3.46^[b]

CC(C)(C)C(O)(COc1ccc(Cl)cc1)c1cncs1 (stereo not drawn)
Efficacy in % (Pyricularia oryzae): 33%

OC(Cc1cncs1)(c1ccc(Cl)cc1)C1(Oc2ccc(F)cc2)CC1 (stereo not drawn) [Compound 2, 1-(4-chlorophenyl)-1-[1-(4-fluorophenoxy)cyclopropyl]-2-(1,3-thiazol-5-yl)ethanol]
chromatographic logP (physchem; pH 2.7): 3.62
chromatographic logP (physchem; pH 7.8): 3.65
Efficacy in % (Sphaerotheca fuliginea [1]): 93%
Efficacy (%) (Sphaerotheca fuliginea [2]): 100%

OC(c1cncs1)(c1ccc(F)cc1F)C1(Oc2ccc(F)cc2F)CC1 (stereo not drawn) [Compound 11, [1-(2,4-difluorophenoxy)cyclopropyl](2,4-difluorophenyl)1,3-thiazol-5-ylmethanol]
chromatographic logP (physchem; pH 2.7): 3.35
chromatographic logP (physchem; pH 7.8): 3.3
Efficacy (%) (Sphaerotheca fuliginea [2]): 95%

OC(Cc1cnc(Cl)s1)(c1ccc(Cl)cc1)C1(Oc2ccc(F)cc2)CC1 (stereo not drawn) [Compound 3, 1-(4-chlorophenyl)-2-(2-chloro-1,3-thiazol-5-yl)-1-[1-(4-fluorophenoxy)cyclopropyl]ethanol]
chromatographic logP (physchem; pH 2.7): 4.55
chromatographic logP (physchem; pH 7.8): 4.53
